Each block holds one compound with its values, some of them ahead of it. Calls of active or inactive are those of the source.
Legend:
Format in all cases: functional
Ion channel NompC = Ion channel NompC (Danio rerio, UniProt Q7T1G6); assay: Dose response cell-based high-throughput screening assay for agonists of the transient receptor potential channel N1 (TRPN1). [Related pubchem assays (depositor defined):AID1424, AID1448]
Mucolipin-3 = Mucolipin-3 (Homo sapiens, UniProt Q8TDD5); assay: Fluorescence counterscreen assay for […] agonists: dose response cell-based high-throughput screening assay to identify agonists of the transient receptor potential channel ML3 (TRPML3). [Related pubchem assays: 1424, 1448 ]
Sequence of Mucolipin-3 (Q8TDD5 whole entry): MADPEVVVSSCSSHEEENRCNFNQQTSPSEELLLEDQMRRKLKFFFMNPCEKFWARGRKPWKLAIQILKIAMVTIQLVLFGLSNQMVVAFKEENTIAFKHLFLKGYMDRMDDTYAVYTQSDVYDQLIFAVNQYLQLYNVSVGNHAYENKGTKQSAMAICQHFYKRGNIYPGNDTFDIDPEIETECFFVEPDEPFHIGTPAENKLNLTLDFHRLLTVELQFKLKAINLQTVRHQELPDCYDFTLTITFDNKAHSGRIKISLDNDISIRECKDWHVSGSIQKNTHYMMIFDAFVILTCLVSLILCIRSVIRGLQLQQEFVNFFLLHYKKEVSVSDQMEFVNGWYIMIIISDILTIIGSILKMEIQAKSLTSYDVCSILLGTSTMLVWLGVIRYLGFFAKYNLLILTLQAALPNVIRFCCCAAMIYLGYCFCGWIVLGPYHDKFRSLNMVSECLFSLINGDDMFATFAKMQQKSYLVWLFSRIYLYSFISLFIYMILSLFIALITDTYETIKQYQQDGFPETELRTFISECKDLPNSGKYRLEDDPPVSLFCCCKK

Coagulation factor XII = biological target: T1, Coagulation factor XII (Homo sapiens, UniProt P00748); assay: Factor XIIa Dose Response Confirmation from Single Well HTS. [Related pubchem assays (depositor defined):AID701]
T1 sequence (P00748 whole entry): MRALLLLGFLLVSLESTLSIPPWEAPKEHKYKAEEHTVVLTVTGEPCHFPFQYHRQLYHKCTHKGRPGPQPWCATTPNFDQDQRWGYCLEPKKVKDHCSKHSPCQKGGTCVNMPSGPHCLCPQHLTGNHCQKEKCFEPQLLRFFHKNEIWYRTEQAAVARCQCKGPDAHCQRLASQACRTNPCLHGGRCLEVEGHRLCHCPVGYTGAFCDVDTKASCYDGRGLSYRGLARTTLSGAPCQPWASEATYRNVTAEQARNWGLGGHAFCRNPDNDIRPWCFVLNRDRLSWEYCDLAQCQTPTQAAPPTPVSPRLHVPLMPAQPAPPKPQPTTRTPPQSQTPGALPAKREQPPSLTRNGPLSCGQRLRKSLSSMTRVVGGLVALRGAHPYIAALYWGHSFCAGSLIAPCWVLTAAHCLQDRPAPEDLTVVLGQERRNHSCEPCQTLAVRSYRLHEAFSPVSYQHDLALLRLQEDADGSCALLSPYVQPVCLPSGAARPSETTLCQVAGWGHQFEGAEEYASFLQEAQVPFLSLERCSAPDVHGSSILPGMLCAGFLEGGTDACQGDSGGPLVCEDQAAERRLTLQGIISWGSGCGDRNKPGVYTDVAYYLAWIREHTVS

[1] = biological target: T2, G-protein coupled receptor 35 (Homo sapiens, UniProt Q9HC97); assay: SAR analysis of Antagonists of the GPR35 Receptor using an Image-Based Assay - Set 4. [Related pubchem assays (depositor defined):[…]]
T2 sequence (Q9HC97 whole entry): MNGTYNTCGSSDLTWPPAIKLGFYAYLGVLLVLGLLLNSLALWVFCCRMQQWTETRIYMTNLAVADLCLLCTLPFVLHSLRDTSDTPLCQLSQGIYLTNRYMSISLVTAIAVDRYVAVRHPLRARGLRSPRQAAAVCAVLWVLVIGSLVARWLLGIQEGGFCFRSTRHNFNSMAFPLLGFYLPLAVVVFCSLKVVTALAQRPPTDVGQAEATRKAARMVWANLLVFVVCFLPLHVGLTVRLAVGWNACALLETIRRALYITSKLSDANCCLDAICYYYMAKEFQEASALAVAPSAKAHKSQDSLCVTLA

Cannabinoid receptor 2 [2] = biological target: T3, Cannabinoid receptor 2 (Homo sapiens, UniProt P34972); assay: SAR analysis of antagonists of the Cannabinoid Receptor 2 using an Image-Based Assay - Set 2. [Related pubchem assays (depositor defined):AID1961, AID1965]
T3 sequence (P34972 whole entry): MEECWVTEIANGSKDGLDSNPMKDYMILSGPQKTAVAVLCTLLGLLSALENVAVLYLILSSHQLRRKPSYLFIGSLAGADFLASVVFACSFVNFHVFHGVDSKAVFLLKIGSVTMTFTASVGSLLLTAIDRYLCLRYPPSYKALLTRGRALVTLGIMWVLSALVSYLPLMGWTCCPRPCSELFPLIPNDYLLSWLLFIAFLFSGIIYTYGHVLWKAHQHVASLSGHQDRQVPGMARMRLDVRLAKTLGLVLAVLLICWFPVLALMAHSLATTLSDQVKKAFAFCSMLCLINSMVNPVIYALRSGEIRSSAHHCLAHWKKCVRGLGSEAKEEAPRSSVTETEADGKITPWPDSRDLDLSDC

[3] = biological target: T2, G-protein coupled receptor 35; assay: SAR analysis of Agonists of the GPR35 Receptor using an Image-Based Assay - Set 3. [Related pubchem assays (depositor defined):AID1961, AID1965]
Cannabinoid receptor 1 [4] = biological target: T4, Cannabinoid receptor 1 (Homo sapiens, UniProt P21554); assay: SAR analysis of antagonists of the Cannabinoid Receptor 1 using an Image-Based Assay - Set 3. [Related pubchem assays (depositor defined):AID1961, AID1965]
T4 sequence (P21554 whole entry): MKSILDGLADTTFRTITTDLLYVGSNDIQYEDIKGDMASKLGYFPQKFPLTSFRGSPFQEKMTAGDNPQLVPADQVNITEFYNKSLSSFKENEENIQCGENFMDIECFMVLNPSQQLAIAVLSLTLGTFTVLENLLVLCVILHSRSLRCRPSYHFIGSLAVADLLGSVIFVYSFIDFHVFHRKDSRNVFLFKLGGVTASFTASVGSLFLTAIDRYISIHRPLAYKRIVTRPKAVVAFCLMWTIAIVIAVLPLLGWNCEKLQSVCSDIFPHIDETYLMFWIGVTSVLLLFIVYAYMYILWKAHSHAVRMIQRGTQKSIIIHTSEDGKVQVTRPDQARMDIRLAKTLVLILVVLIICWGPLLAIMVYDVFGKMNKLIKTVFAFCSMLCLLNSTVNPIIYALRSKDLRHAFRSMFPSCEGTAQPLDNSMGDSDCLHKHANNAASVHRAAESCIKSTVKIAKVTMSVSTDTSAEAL

Cannabinoid receptor 2 [5] = biological target: T3, Cannabinoid receptor 2; assay: SAR analysis of agonists of the Cannabinoid Receptor 2 using an Image-Based Assay - Set 2. [Related pubchem assays (depositor defined):AID1961, AID1965]
Cannabinoid receptor 1 [6] = biological target: T4, Cannabinoid receptor 1; assay: SAR analysis of agonists of the Cannabinoid Receptor 1 using an Image-Based Assay - Set 3. [Related pubchem assays (depositor defined):AID1961, AID1965]
[7] = biological target: G-protein coupled receptor 55 (Homo sapiens, UniProt Q9Y2T6); assay: SAR analysis of selective Agonists of GPR55 using an Image-Based Assay - Set 2. [Related pubchem assays (depositor defined):AID1961, AID1965]
Sequence of G-protein coupled receptor 55 (Q9Y2T6 whole entry): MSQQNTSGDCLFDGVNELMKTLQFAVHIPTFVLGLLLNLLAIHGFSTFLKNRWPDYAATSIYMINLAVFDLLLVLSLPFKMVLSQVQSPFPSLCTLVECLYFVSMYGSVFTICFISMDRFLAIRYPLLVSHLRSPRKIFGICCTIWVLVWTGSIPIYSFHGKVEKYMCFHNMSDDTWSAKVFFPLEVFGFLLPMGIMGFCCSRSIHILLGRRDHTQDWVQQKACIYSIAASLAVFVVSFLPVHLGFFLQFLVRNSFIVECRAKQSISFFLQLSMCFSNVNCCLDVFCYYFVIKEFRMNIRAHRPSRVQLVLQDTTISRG

Sequence of Ion channel NompC (Q7T1G6 whole entry): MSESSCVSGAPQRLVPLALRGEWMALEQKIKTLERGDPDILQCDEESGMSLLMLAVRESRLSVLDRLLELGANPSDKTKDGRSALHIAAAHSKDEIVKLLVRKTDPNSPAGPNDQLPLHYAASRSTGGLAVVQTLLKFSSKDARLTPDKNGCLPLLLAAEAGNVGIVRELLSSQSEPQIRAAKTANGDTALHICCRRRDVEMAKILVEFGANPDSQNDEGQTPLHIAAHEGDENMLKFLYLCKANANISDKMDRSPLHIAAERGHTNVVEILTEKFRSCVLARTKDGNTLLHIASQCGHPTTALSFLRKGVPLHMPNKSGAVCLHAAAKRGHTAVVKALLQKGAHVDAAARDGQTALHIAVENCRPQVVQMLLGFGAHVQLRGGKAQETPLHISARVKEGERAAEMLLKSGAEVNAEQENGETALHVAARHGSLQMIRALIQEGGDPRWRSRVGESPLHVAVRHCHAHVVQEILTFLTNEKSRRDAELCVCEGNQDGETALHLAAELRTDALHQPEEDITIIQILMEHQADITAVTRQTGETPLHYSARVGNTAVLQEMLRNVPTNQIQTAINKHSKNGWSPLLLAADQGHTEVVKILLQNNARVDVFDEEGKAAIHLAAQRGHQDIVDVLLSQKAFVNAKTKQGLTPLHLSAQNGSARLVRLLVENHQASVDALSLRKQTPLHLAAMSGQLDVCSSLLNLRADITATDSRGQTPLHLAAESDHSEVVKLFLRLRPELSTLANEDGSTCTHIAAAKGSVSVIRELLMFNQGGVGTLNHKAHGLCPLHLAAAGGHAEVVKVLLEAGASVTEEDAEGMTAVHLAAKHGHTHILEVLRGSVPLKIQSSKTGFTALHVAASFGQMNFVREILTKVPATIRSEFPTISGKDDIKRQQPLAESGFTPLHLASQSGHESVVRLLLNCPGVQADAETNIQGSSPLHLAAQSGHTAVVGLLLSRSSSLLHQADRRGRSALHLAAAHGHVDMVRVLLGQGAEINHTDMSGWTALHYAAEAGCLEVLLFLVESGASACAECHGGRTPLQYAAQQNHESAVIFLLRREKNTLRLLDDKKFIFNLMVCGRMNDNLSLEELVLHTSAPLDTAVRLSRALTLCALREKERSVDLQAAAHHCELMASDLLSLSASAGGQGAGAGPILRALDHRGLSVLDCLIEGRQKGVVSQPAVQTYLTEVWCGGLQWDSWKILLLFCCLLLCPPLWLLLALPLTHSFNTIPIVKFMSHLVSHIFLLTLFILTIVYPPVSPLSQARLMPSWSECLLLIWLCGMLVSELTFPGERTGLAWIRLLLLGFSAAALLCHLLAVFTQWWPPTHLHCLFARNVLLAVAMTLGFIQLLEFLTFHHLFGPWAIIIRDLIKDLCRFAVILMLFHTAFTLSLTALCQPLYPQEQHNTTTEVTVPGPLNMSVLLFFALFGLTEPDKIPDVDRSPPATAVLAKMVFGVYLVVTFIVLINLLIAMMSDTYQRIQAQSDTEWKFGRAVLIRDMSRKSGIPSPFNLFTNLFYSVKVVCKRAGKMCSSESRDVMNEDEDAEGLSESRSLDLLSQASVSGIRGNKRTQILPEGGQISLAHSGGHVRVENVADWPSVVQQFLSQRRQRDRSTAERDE

EC50 (Ion channel NompC): > 29.9 µM (inactive) | EC50 (Mucolipin-3): > 29.9 µM (not active)
Structure (SMILES): COCc1nnc(SCC(=O)NCc2ccccc2)n1-c1ccccc1

IC50 (Coagulation factor XII): > 50 µM (inconclusive)
Structure (SMILES): Cc1cc(OC(=O)c2ccco2)c2c(C)cc(=O)oc2c1

IC50 [1]: > 32 µM (inactive) | IC50 (Cannabinoid receptor 2 [2]): > 32 µM (inactive) | EC50 [3]: > 32 µM (inactive) | IC50 (Cannabinoid receptor 1 [4]): > 32 µM (inactive) | EC50 (Cannabinoid receptor 2 [5]): > 32 µM (inactive) | EC50 (Cannabinoid receptor 1 [6]): > 32 µM (inactive) | EC50 [7]: 1.37 µM (active)
Structure (SMILES): O=C(Nc1cccc(S(=O)(=O)N2CCOCC2)c1)c1ccc(N2CCCC2=O)cc1
